Measurements taken from patent US9499599B2, “Composition and methods for stimulating gastrointestinal motility” (Ipsen Pharma S.A.S., priority 2005, dated 2016).
Non-standard residues stand in square brackets, D forms with d. Residues, ends and D or L forms follow the SMILES beside them. No end group written: not given here. Ala(4-thiazolyl) = N[C@@H](Cc1cscn1)C(=O)O; d2Nal = N[C@H](Cc1ccc2ccccc2c1)C(=O)O; dBta = N[C@H](Cc1csc2ccccc12)C(=O)O; Api = NC1(C(=O)O)CCNCC1; Inp = O=C(O)C1CCNCC1

Tests used:
[1] = tested on: patients with diabetic gastroparesis; details: cited from earlier work
septic mice = details: cited from earlier work
Ferrets = details: ferrets exposed to cisplatin, intracerebroventricular administration; cited from earlier work
rats [2] = test: In vivo study on intestinal transit, charcoal meal; set-up: species or system rat; details: fasted anesthetized rats, charcoal meal by esophageal gavage
Method: In the study, groups of eight rats were fasted for approximately 24 hours with free access to water. Anesthetized test subjects were administered native ghrelin, the selected analog and atropine as a control. The test subjects were administered a 2 ml charcoal meal by esophageal gavage approximately five minutes after the initial administration of ghrelin, the selected analog or atropine. After approximately an additional 25 minutes, the test subjects were sacrificed by cervical rupture and the small intestines were removed. The distance the charcoal traveled was measured from the pylorus.

mice = details: cited from earlier work
male Sprague Dawley rats [3] = test: Effect on POI in rat (laparotomy-induced gastric ileus), gastric emptying; type: in vivo; details: 3 centimeter laparotomy, administered subcutaneously
laparectomized dogs = details: cited from earlier work
rats [4] = details: cited from earlier work
male Sprague Dawley rats [5] = test: In vivo gastric emptying, intravenous administration, phenol red meal; set-up: species or system rat; details: fasted anesthetized rats, administered intravenously
Method: Selected compounds of the invention can be and were tested to determine the effect of the compounds upon gastric emptying. […] Native ghrelin, the selected ghrelin analog and a metoclopramide control compound were administered intravenously to anesthetized test subjects. Approximately five minutes after the initial administration of native ghrelin, the selected ghrelin analog or the control compound, a 1.5 ml meal marked with phenol red (0.5 mg/ml phenol red and 1.5% methyl cellulose in whole milk) was administered to each test subject by esophageal gavage. After approximately an additional 20 minutes, the test subjects were sacrificed by cervical rupture and the stomachs removed and individually pulverized. The residual phenol red in the stomach of the test subjects was extracted and was measured spectrophometrically at a wavelength of 560 nm.

rats [6] = details: post-operative ileus model; cited from earlier work
male Sprague Dawley rats [7] = test: In vivo gastric emptying, subcutaneous administration, phenol red meal; set-up: species or system rat; details: fasted rats, injected subcutaneously, varying doses
Method: The animals were injected subcutaneously with either vehicle or varying doses of native ghrelin or selected ghrelin analogs. After approximately 15 minutes, 1.5 ml of a phenol red marked nutrient meal (0.5 mg/ml phenol red & 1.5% methyl cellulose in whole milk) was administered orally to the rats. […] The residual phenol red in the stomach was extracted and measured by spectrophotometric methods at a wavelength of 560 nm. […] (see Figures)

[8] = biological target: T1, human recombinant GHS receptor (Homo sapiens, UniProt Q92847); test: GHS-receptor binding assay, (125I)ghrelin displacement; details: 0.05 nM (125I)ghrelin, membranes of CHO-K1 cells expressing human recombinant GHS receptor, 60 min at 4° C.
T1 construct: The full length human GHS-R was subcloned into the mammalian expression vector pcDNA 3.1; expressed in transfected cells; membrane homogenates used
T1 sequence (Q92847 whole entry): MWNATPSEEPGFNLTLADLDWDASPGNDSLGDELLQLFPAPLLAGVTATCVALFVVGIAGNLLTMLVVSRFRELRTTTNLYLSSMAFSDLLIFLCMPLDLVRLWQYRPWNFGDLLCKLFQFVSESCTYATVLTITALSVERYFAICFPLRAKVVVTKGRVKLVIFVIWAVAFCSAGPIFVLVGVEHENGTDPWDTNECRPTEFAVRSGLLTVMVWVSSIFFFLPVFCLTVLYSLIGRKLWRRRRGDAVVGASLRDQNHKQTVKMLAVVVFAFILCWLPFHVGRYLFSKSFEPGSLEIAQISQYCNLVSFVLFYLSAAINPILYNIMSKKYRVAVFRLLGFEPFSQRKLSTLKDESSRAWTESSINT
Method: Membranes for radioligand binding studies can be and were prepared by homogenization of the foregoing CHO-K1 cells expressing the human recombinant GHS receptor. The cells were homogenized in 20 ml of ice-cold 50 mM Tris-HCl using a Brinkman Polytron® (Westbury, N.Y.; setting 6, 15 sec). The homogenates were washed twice by centrifugation (39,000 g/10 min) and the final pellets were resuspended in 50 mM Tris-HCl containing 2.5 mM MgCl2 and 0.1% bovine serum albumin (BSA).

Compound	effect on gastric emptying (septic mice)	effect on transit in the small intestine (septic mice)	effect on intestinal transit (distance the charcoal traveled from the pylorus) (rats [2])	effect on gastric emptying (mice)	effect on gastric emptying under post-operative ileus conditions (male Sprague Dawley rats [3])	effect on gastric emptying (rats [4])	effect on gastric emptying (residual phenol red in stomach) (male Sprague Dawley rats [5])	effect on gastric emptying (residual phenol red in stomach) (male Sprague Dawley rats [7])	Ki [8] [nM]	also measured
H-Gly-Ser-Ser-Phe-Leu-Ser-Pro-Glu-His-Gln-Arg-Val-Gln-Gln-Arg-Lys-Glu-Ser-Lys-Lys-Pro-Pro-Ala-Lys-Leu-Gln-Pro-Arg-NH2 (H-GSSFLSPEHQRVQQRKESKKPPAKLQPR-NH2) [ghrelin, orexigenic hormone, native ligand for the GHS receptor]	accelerated gastric emptying	little effect upon increasing transit in the small intestine	accelerated gastric intestinal transit	accelerate gastric emptying	significantly accelerated gastric emptying	accelerate gastric emptying	accelerated gastric emptying	accelerated gastric emptying		effect on gastric emptying [1]: increase gastric emptying; occurrences of retching and vomiting (Ferrets): significantly reduced occurrences of retching and vomiting; effect on POI (laparectomized dogs): improve POI; effect on delay of gastric emptying (rats [6]): reverse the delay of gastric emptying
NCCCC[C@H](NC(=O)[C@H](Cc1ccccc1)NC(=O)[C@@H](Cc1c[nH]c2ccccc12)NC(=O)[C@@H](Cc1ccc2ccccc2c1)NC(=O)C1CCNCC1)C(N)=O [Example #2, Inp-D-2-Nal-D-Trp-Phe-Lys-NH2] (HELM PEPTIDE1{[O=C(C1CCNCC1)[*:2]].[O=C([C@@H](Cc1ccc2ccccc2c1)N[*:1])[*:2]].[dW].F.K.[am]}$$$$V2.0)									0.3	
NC(=O)C1(NC(=O)[C@H](Cc2ccccc2)NC(=O)[C@@H](Cc2c[nH]c3ccccc23)NC(=O)[C@@H](Cc2csc3ccccc23)NC(=O)C2CCNCC2)CCNCC1 [Example #19, H-Inp-D-Bal-D-Trp-Phe-Apc-NH2] (H-[Inp][dBta][dW]F[Api]-NH2)			accelerated gastric intestinal transit		significantly accelerated gastric emptying		accelerated gastric emptying	accelerated gastric emptying		
NCCCC[C@H](NC(=O)[C@H](Cc1cscn1)NC(=O)[C@@H](Cc1c[nH]c2ccccc12)NC(=O)[C@@H](Cc1ccc2ccccc2c1)NC(=O)C1CCNCC1)C(N)=O [Example #37, H-Inp-D-2-Nal-D-Trp-Taz-Lys-NH2] (H-[Inp][d2Nal][dW][Ala(4-thiazolyl)]K-NH2)									0.8	
His-D-Trp-Ala-Trp-D-Phe-Lys-amide (H[dW]AW[dF]K-NH2) [GHRP-6]	accelerated gastric emptying	little effect upon increasing transit in the small intestine		accelerate gastric emptying		accelerate gastric emptying				
